# In US20190359609A1, “BICYCLIC OGA INHIBITOR COMPOUNDS” (Janssen Pharmaceutica NV, priority 2016, published 2019):
# Counter-ions that a name gives are not always drawn.
# Tested on: not given
# Assay: not given
# Conditions: not given
row,SMILES,melting point [°C]
1,CC(=O)Nc1ncc(CN2CC[C@@H](Cc3cc4ncccc4n3C)C2)s1 [Compound 58],187.16
2,CC(=O)Nc1ncc(CN2CCC(Cc3cc4cccnc4n3C)C2)s1 (stereo not shown) [Compound 60],153.79
3,CC(=O)Nc1ncc(CN2CCC(Cc3cc4cnccc4n3C)C2)s1 (stereo not shown) [Compound 61],195.06

# Other lines, results leading:
row,melting point [°C],SMILES
1,178.2,c1cnc2cc(C3CCCN(Cc4ccc5c(c4)OCCO5)C3)[nH]c2c1 (stereo not shown) (as salt: HCl) [Compound 39]
2,223.94,"CC(=O)Nc1ncc(CN2CCCC(c3nc4ncccc4[nH]3)C2)s1 (single isomer, unassigned) [Compound 18]"
3,235,CCC(=O)Nc1ncc(CN2CCCC(c3cc4ncccc4[nH]3)C2)s1 (stereo not shown) [Compound 9]
4,190.09,CC(=O)Nc1ncc(CN2CC[C@H](Cc3cc4ncccc4n3C)C2)s1 [Compound 59]

# Target: T1, recombinant human Meningioma Expressed Antigen 5 (MGEA5), also referred to as O-GlcNAcase (OGA) (Homo sapiens, UniProt O60502)
# T1 construct: Full length OGA enzyme was purchased at OriGene (cat # TP322411); purchased OriGene TP322411
# T1 sequence (O60502 1-916): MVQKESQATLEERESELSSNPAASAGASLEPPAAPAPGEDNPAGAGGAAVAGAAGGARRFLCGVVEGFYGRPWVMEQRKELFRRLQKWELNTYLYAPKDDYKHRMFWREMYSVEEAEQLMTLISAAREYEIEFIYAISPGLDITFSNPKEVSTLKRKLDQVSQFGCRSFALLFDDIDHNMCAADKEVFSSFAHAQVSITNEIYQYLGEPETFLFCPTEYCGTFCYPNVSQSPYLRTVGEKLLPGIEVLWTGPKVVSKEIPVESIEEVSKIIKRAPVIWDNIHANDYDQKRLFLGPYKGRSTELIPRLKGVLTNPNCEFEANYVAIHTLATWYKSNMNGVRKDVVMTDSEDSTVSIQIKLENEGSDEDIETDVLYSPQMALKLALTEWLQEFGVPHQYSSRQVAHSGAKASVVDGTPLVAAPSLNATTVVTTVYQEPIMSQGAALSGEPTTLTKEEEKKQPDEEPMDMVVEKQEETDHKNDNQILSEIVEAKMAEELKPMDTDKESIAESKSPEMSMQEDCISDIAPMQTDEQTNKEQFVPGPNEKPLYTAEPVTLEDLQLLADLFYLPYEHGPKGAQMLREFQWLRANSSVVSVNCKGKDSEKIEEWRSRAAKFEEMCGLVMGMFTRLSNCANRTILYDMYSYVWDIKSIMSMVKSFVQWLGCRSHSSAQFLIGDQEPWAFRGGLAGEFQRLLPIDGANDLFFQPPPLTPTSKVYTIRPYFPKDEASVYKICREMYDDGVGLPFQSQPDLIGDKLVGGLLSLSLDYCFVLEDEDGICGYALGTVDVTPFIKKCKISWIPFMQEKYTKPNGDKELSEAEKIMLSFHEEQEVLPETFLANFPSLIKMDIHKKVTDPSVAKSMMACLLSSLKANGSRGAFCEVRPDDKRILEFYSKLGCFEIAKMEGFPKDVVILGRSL
# Assay: OGA biochemical assay: inhibition of FM-GlcNAc hydrolysis, fluorescence (protocol A 10 nM OGA, 1 h; protocol B 2 nM OGA, 6 h)
# Conditions: Enzymatic protocol A (10 nM OGA, 1 h)
# Description: The assay is based on the inhibition of the hydrolysis of fluorescein mono-B-D-N-Acetyl-Glucosamine (FM-GlcNAc) (Mariappa et al. 2015, Biochem J 470:255) by the recombinant human Meningioma Expressed Antigen 5 (MGEA5), also referred to as 0-GlcNAcase (OGA). The hydrolysis FM-GlcNAc (Marker Gene technologies, cat # M1485) results in the formation of β-D-N-glucosamineacetate and fluorescein. The fluorescence of the latter can be measured at excitation wavelength 485 nm and emission wavelength 538 nm. An increase in enzyme activity results in an increase in fluorescence signal. Full length OGA enzyme was purchased at OriGene (cat # TP322411). The enzyme was stored in 25 mM Tris.HCl, pH 7.3, 100 mM glycine, 10% glycerol at −20° C. Thiamet G and GlcNAcStatin were tested as reference compounds (Yuzwa et al. 2008 Nature Chemical Biology 4:483; Yuzwa et al. 2012 Nature Chemical Biology 8:393). The assay was performed in 200 mM Citrate/phosphate buffer supplemented with 0.005% Tween-20. 35.6 g Na2HPO4 2 H2O (Sigma, # C0759) were dissolved in 1 L water to obtain a 200 mM solution. 19.2 g citric acid (Merck, #1.06580) was dissolved in 1 L water to obtain a 100 mM solution. pH of the sodiumphosphate solution was adjusted with the citric acid solution to 7.2. The buffer to stop the reaction consists of a 500 mM Carbonate buffer, pH 11.0. 734 mg FM-GlcNAc were dissolved in 5.48 mL DMSO to obtain a 250 mM solution and was stored at −20° C. OGA was used at a 10 nM (protocol A) or 2 nM (protocol B) concentration and FM-GlcNAc at a 100 uM final concentration. Dilutions were prepared in assay buffer.
# 50 nl of a compound dissolved in DMSO was dispensed on Black Proxiplate™ 384 Plus Assay plates (Perkin Elmer, #6008269) and 3 μl fl-OGA enzyme mix added subsequently. Plates were pre-incubated for 60 min at room temperature and then 2 μl FM-GlcNAc substrate mix added. […] Plates were briefly centrifuged for 1 min at 1000 rpm and incubate at room temperature for 1 h (10 nM OGA, protocol A) or 6 h (2 nM OGA, protocol B). To stop the reaction 5 μl STOP buffer were added and plates centrifuge again 1 min at 1000 rpm. Fluorescence was quantified in the Thermo Scientific Fluoroskan Ascent or the PerkinElmer EnVision with excitation wavelength 485 nm and emission wavelength 538 nm.
# For analysis a best-fit curve is fitted by a minimum sum of squares method. From this an IC50 value and Hill coefficient was obtained. High control (no inhibitor) and low control (saturating concentrations of standard inhibitor) were used to define the minimum and maximum values.
row,Enzymatic Emax (%),SMILES
1,55.6,"CC(=O)Nc1ncc(CN2CCCC(c3nc4ncccc4[nH]3)C2)s1 (single isomer, unassigned) [Compound 18]"

# Same assay, conditions: Enzymatic protocol A (10 nM OGA, 1 h); read-out: Enzymatic Emax (%)
row,Emax [%],SMILES
1,98,CCC(=O)Nc1ncc(CN2CCCC(c3cc4ncccc4[nH]3)C2)s1 (stereo not shown) [Compound 9]

# Same assay, conditions: Enzymatic protocol A (10 nM OGA, 1 h); read-out: Enzymatic hOGA; pIC50 (converted)
row,IC50 [nM],SMILES
1,24500,"CC(=O)Nc1ncc(CN2CCCC(c3nc4ncccc4[nH]3)C2)s1 (single isomer, unassigned) [Compound 18]"
2,204,CCC(=O)Nc1ncc(CN2CCCC(c3cc4ncccc4[nH]3)C2)s1 (stereo not shown) [Compound 9]

# Same assay, conditions: Enzymatic protocol B (2 nM OGA, 6 h); read-out: Enzymatic Emax (%)
row,Emax [%],SMILES
1,102,CC(=O)Nc1ncc(CN2CC[C@@H](Cc3cc4ncccc4n3C)C2)s1 [Compound 58]
2,99.7,CC(=O)Nc1ncc(CN2CC[C@H](Cc3cc4ncccc4n3C)C2)s1 [Compound 59]
3,99.2,CC(=O)Nc1ncc(CN2CCC(Cc3cc4cccnc4n3C)C2)s1 (stereo not shown) [Compound 60]
4,100,CC(=O)Nc1ncc(CN2CCC(Cc3cc4cnccc4n3C)C2)s1 (stereo not shown) [Compound 61]

# Same assay, conditions: Enzymatic protocol B (2 nM OGA, 6 h); read-out: Enzymatic hOGA; pIC50 (converted)
row,IC50 [nM],SMILES
1,2.69,CC(=O)Nc1ncc(CN2CC[C@@H](Cc3cc4ncccc4n3C)C2)s1 [Compound 58]
2,1.17,CC(=O)Nc1ncc(CN2CC[C@H](Cc3cc4ncccc4n3C)C2)s1 [Compound 59]
3,9.33,CC(=O)Nc1ncc(CN2CCC(Cc3cc4cccnc4n3C)C2)s1 (stereo not shown) [Compound 60]
4,1.51,CC(=O)Nc1ncc(CN2CCC(Cc3cc4cnccc4n3C)C2)s1 (stereo not shown) [Compound 61]
